Measured values taken from ChEMBL document CHEMBL5500377, “Design, synthesis and molecular modeling of novel D-ring substituted steroidal 4,5-dihydropyrazole thiazolinone derivatives as anti-inflammatory agents by inhibition of COX-2/iNOS production and down-regulation of NF-κB/MAPKs in LPS-induced RAW264.7 macrophage cells” (Eur J Med Chem, 2024).
Active and inactive are the calls of the source. No cut-off for these calls is given here.

Columns and labels:
RAW264.7 [1] = assay: Reduction in LPS-induced nuclear p65 level in mouse RAW264.7 cells at 2.5 to 10 uM pretreated for 1 hr followed by induced with LPS measured after 24 hrs by Western blot analysis; format: functional, cell-based; conditions: dose 2.5-10 µM, time 25.0 hrs
RAW264.7 [2] = assay: Inhibition of p38 MAPK protein level in LPS-induced mouse RAW264.7 cells at 2.5 to 10 uM pretreated for 1 hr followed by induced with LPS measured after 24 hrs by Western blot analysis; format: functional, cell-based; conditions: dose 2.5-10 µM, time 25.0 hrs
[3] = Cytotoxicity against mouse RAW264.7 cells assessed as cell viability at 5 uM measured after 24 hrs incubation by MTT assay relative to control; format: toxicity, cell-based; conditions: read-out: Activity
RAW264.7 [4] = assay: Anti-inflammatory activity against mouse RAW264.7 cells assessed as inhibition of LPS-induced COX2 mRNA level pretreated for 1 hr followed by induced with LPS measured after 6 hrs by quantitative RT-PCR analysis; format: functional, cell-based; conditions: dose 2.5-20 µM, time 7.0 hrs
RAW264.7 [5] = assay: Anti-inflammatory activity against mouse RAW264.7 cells assessed as inhibition of LPS-induced iNOS mRNA level pretreated for 1 hr followed by induced with LPS measured after 6 hrs by quantitative RT-PCR analysis; format: functional, cell-based; conditions: dose 2.5-20 µM, time 7.0 hrs
RAW264.7 [6] = assay: Anti-inflammatory activity against mouse RAW264.7 cells assessed as inhibition of LPS-induced TNFalpha mRNA level pretreated for 1 hr followed by induced with LPS measured after 6 hrs by quantitative RT-PCR analysis; format: functional, cell-based; conditions: dose 2.5-20 µM, time 7.0 hrs
RAW264.7 [7] = assay: Inhibition of LPS-induced ERK phosphorylation in mouse RAW264.7 cells at 2.5 to 10 uM pretreated for 1 hr followed by induced with LPS measured after 24 hrs by Western blot analysis; format: cell-based; conditions: dose 2.5-10 µM, time 25.0 hrs
[8] = target: MAP kinase p38 (Mus musculus) (UniProt P47811+O08911+Q9WUI1+Q9Z1B7); assay: Inhibition of LPS-induced p38 MAPK phosphorylation in mouse RAW264.7 cells at 2.5 to 10 uM pretreated for 1 hr followed by induced with LPS measured after 24 hrs by Western blot analysis; format: cell-based; conditions: dose 2.5-10 µM, time 25.0 hrs
RAW264.7 [9] = assay: Anti-inflammatory activity against mouse RAW264.7 cells assessed as inhibition of LPS-induced COX2 level pretreated for 1 hr followed by induced with LPS measured after 24 hrs by ELISA; format: functional, cell-based; conditions: dose 2.5-20 µM, time 25.0 hrs
RAW264.7 [10] = assay: Inhibition of LPS-induced NFkappaB p65 translocation from cytosol to nucleus in mouse RAW264.7 cells at 2.5 to 10 uM pretreated for 1 hr followed by induced with LPS measured after 24 hrs by Western blot analysis; format: subcellular; conditions: dose 2.5-10 µM, time 25.0 hrs
BV-2 = assay: Anti-inflammatory activity against […] assessed as inhibition of LPS-induced NO production at 2.5 to 20 uM measured after 24 hrs incubation by Griess assay; format: functional, cell-based; conditions: dose 2.5-20 µM
RAW264.7 [11] = assay: Anti-inflammatory activity against mouse RAW264.7 cells assessed as inhibition of LPS-induced TNFalpha level at 10 uM pretreated for 1 hr followed by induced with LPS measured after 24 hrs by ELISA (reference value: 0.61 ng/ml); format: functional; conditions: time 25 hrs
RAW264.7 [12] = assay: Inhibition of LPS-induced translocation of NFkappaB p65 heterodimer into nucleus in mouse RAW264.7 cells at 2.5 to 10 uM pretreated for 1 hr followed by induced with LPS measured after 24 hrs by Western blot analysis; format: subcellular; conditions: dose 2.5-10 µM, time 25.0 hrs
RAW264.7 [13] = assay: Anti-inflammatory activity against mouse RAW264.7 cells assessed as inhibition of LPS-induced IL-6 mRNA level pretreated for 1 hr followed by induced with LPS measured after 6 hrs by quantitative RT-PCR analysis; format: functional, cell-based; conditions: dose 2.5-20 µM, time 7.0 hrs
RAW264.7 [14] = assay: Anti-inflammatory activity against mouse RAW264.7 cells assessed as inhibition of LPS-induced COX2 level at 20 uM pretreated for 1 hr followed by induced with LPS measured after 24 hrs by ELISA (reference value: 95.38 pg/ml); format: functional; conditions: time 25 hrs
RAW264.7 [15] = assay: Anti-inflammatory activity against mouse RAW264.7 cells assessed as inhibition of LPS-induced iNOS level pretreated for 1 hr followed by induced with LPS measured after 24 hrs by Western blot analysis; format: functional, cell-based; conditions: dose 2.5-10 µM, time 25.0 hrs
RAW264.7 [16] = assay: Anti-inflammatory activity against mouse RAW264.7 cells assessed as inhibition of LPS-induced TNFalpha level at 5 uM pretreated for 1 hr followed by induced with LPS measured after 24 hrs by ELISA (reference value: 0.61 ng/ml); format: functional; conditions: time 25 hrs
RAW264.7 [17] = assay: Inhibition of JNK protein level in LPS-induced mouse RAW264.7 cells at 2.5 to 10 uM pretreated for 1 hr followed by induced with LPS measured after 24 hrs by Western blot analysis; format: functional, cell-based; conditions: dose 2.5-10 µM, time 25.0 hrs
[18] = target: c-Jun N-terminal kinase (Mus musculus) (UniProt Q91Y86+Q9WTU6+Q61831); assay: Inhibition of LPS-induced JNK phosphorylation in mouse RAW264.7 cells at 2.5 to 10 uM pretreated for 1 hr followed by induced with LPS measured after 24 hrs by Western blot analysis; format: cell-based; conditions: dose 2.5-10 µM, time 25.0 hrs
Chain of c-Jun N-terminal kinase (Mus musculus) (Q61831 whole entry, looked up): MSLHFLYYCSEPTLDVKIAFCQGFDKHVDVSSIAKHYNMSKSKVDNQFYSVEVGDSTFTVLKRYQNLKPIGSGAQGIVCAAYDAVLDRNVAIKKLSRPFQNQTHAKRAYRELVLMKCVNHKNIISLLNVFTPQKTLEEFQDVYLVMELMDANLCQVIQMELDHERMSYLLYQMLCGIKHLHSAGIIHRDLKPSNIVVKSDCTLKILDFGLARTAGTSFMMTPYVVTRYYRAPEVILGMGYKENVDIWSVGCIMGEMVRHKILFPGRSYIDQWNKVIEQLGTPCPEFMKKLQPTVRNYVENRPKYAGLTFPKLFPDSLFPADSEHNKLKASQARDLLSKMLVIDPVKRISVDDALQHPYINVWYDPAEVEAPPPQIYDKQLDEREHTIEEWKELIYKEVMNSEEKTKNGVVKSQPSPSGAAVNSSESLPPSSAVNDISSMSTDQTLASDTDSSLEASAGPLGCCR
Chain of c-Jun N-terminal kinase (Mus musculus) (Q91Y86 whole entry, looked up): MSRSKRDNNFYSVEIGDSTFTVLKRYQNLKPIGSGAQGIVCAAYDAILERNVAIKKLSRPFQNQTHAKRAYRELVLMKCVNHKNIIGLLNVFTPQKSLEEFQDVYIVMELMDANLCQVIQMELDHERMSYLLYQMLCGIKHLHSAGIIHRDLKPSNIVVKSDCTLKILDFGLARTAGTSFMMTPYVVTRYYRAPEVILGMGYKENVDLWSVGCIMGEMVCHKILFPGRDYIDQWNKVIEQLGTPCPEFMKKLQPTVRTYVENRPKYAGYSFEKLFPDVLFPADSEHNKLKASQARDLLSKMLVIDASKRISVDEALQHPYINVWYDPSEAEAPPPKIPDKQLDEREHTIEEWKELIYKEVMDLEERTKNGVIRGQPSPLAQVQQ
Chain of c-Jun N-terminal kinase (Mus musculus) (Q9WTU6 whole entry, looked up): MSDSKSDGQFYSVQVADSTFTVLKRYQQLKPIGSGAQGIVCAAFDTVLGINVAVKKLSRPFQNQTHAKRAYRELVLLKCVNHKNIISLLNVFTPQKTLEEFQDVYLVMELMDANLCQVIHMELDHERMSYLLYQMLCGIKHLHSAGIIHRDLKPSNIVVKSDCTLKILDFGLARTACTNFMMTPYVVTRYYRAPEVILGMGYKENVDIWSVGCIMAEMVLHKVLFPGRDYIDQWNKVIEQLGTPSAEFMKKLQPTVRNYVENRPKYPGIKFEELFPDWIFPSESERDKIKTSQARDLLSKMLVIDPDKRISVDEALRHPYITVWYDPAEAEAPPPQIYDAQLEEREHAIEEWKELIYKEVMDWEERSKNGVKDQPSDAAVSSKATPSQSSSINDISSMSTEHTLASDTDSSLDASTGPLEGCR

RAW264.7 [19] = assay: Anti-inflammatory activity against mouse RAW264.7 cells assessed as inhibition of LPS-induced COX2 level at 5 uM pretreated for 1 hr followed by induced with LPS measured after 24 hrs by ELISA (reference value: 95.38 pg/ml); format: functional; conditions: time 25 hrs
RAW264.7 [20] = assay: Anti-inflammatory activity against mouse RAW264.7 cells assessed as inhibition of LPS-induced NO production measured after 24 hrs incubation by Griess assay; format: functional, cell-based; conditions: RAW264.7, 24 h
RAW264.7 [21] = assay: Inhibition of ERK protein level in LPS-induced mouse RAW264.7 cells at 2.5 to 10 uM pretreated for 1 hr followed by induced with LPS measured after 24 hrs by Western blot analysis; format: functional, cell-based; conditions: dose 2.5-10 µM, time 25.0 hrs
RAW264.7 [22] = assay: Anti-inflammatory activity against mouse RAW264.7 cells assessed as inhibition of LPS-induced TNFalpha level at 20 uM pretreated for 1 hr followed by induced with LPS measured after 24 hrs by ELISA (reference value: 0.61 ng/ml); format: functional; conditions: time 25 hrs
RAW264.7 [23] = assay: Anti-inflammatory activity against mouse RAW264.7 cells assessed as inhibition of LPS-induced TNFalpha level pretreated for 1 hr followed by induced with LPS measured after 24 hrs by ELISA; format: functional, cell-based; conditions: dose 2.5-20 µM, time 25.0 hrs
RAW264.7 [24] = assay: Anti-inflammatory activity against mouse RAW264.7 cells assessed as inhibition of LPS-induced COX2 level at 10 uM pretreated for 1 hr followed by induced with LPS measured after 24 hrs by ELISA (reference value: 95.38 pg/ml); format: functional; conditions: time 25 hrs
RAW264.7 [25] = assay: Anti-inflammatory activity against mouse RAW264.7 cells assessed as inhibition of LPS-induced activation of NF-kappaB p65 by measuring phosphorylation pretreated for 1 hr followed by induced with LPS measured after 24 hrs by Western blot analysis; format: functional, cell-based; conditions: dose 2.5-10 µM, time 25.0 hrs
RAW264.7 [26] = assay: Anti-inflammatory activity against mouse RAW264.7 cells assessed as inhibition of LPS-induced NO production at 5 uM measured after 24 hrs incubation by Griess assay relative to control; format: functional
RAW264.7 [27] = assay: Anti-inflammatory activity against mouse RAW264.7 cells assessed as inhibition of LPS-induced COX2 level pretreated for 1 hr followed by induced with LPS measured after 24 hrs by Western blot analysis; format: functional, cell-based; conditions: dose 2.5-10 µM, time 25.0 hrs
RAW264.7 [28] = assay: Anti-inflammatory activity against mouse RAW264.7 cells assessed as inhibition of LPS-induced TNFalpha level at 2.5 uM pretreated for 1 hr followed by induced with LPS measured after 24 hrs by ELISA (reference value: 0.61 ng/ml); format: functional; conditions: time 25 hrs
RAW264.7 [29] = assay: Anti-inflammatory activity against mouse RAW264.7 cells assessed as inhibition of LPS-induced COX2 level at 2.5 uM pretreated for 1 hr followed by induced with LPS measured after 24 hrs by ELISA (reference value: 95.38 pg/ml); format: functional; conditions: time 25 hrs

C[C@]12CC[C@H]3[C@@H](CC=C4C[C@@H](O)CC[C@@]43C)[C@@H]1CC[C@@H]2C1=NN(C2=NC(=O)CS2)C(c2cccc(F)c2)C1 (stereo not given in full)
inhibition (RAW264.7 [1]): Active | Activity (RAW264.7 [2]): inactive | viability at 24 h, 5 µM [3]: 97.4% | inhibition (RAW264.7 [4]): Dose-Dependent Effect | inhibition (RAW264.7 [5]): Dose-Dependent Effect | inhibition (RAW264.7 [6]): Dose-Dependent Effect | inhibition (RAW264.7 [7]): Active | inhibition [8]: Active | inhibition (RAW264.7 [9]): Dose-Dependent Effect | inhibition (RAW264.7 [10]): Active | inhibition (BV-2): Active | Activity (RAW264.7 [11]): 0.33 ng/mL | inhibition (RAW264.7 [12]): Active | inhibition (RAW264.7 [13]): Dose-Dependent Effect | Activity (RAW264.7 [14]): 0.0378 ng/mL | inhibition (RAW264.7 [15]): Dose-Dependent Effect | Activity (RAW264.7 [16]): 0.42 ng/mL | Activity (RAW264.7 [17]): inactive | inhibition [18]: Active | Activity (RAW264.7 [19]): 0.0624 ng/mL | IC50 (RAW264.7 [20]): 2340 nM | inhibition (RAW264.7 [21]): inactive | Activity (RAW264.7 [22]): 0.3 ng/mL | inhibition (RAW264.7 [23]): Dose-Dependent Effect | Activity (RAW264.7 [24]): 0.0428 ng/mL | inhibition (RAW264.7 [25]): Dose-Dependent Effect | inhibition at 5 µM (RAW264.7 [26]): 45.4% | inhibition (RAW264.7 [27]): Dose-Dependent Effect | Activity (RAW264.7 [28]): 0.51 ng/mL | Activity (RAW264.7 [29]): 0.0824 ng/mL
